Experimental data taken from US20120165403A1, “METHODS OF INHIBITING THE ACTIVITY OF HSP90 AND/OR ARYL HYDROCARBON RECEPTOR” (UNIVERSITY OF ROCHESTER, priority 2004, published 2012).

What was measured:
[1] = system: TCDD induced luciferase activity (human CYP1A1 promoter); experiment: Luciferase reporter gene assay in HepG2.101L cells; format: cell-based
Description: The human hepatoma cell line HepG2 were stably transfected with a luciferase expression vector downstream from exon one, a portion of intron one, and 1612 base pairs of the 5′-flanking sequence of the human CYP1A gene to generate the cell line HepG2.101L, as previously described (Postlind et al., Toxicol. Appl. Pharmacol 118:255-262 (1993), which is hereby incorporated by reference in its entirety). Cells were grown in Dulbecco's modified Eagle's medium (Mediatech Herndon, Va.) supplemented with 10% fetal bovine serum and Gentamicin (DMEM) at 37° C. in a humid atmosphere with 5% CO2. Treatment and reporter gene activity were assessed as previously described (Palermo et al., Chem. Res. Toxicol. 16:865-872 (2003), which is hereby incorporated by reference in its entirety) with the following changes: HepG2.101L cells were added to hydrated Cytodex™ microcarrier beads (Sigma) to achieve 1.5×10^6 cells per 30 mg beads per 10 ml DMEM. Luminescence was detected using the Packard Lumicount™ (Meriden, Conn.).

chicken hsp90 = experiment: Affinity chromatography on EGCG-conjugated Sepharose, hsp90 point and truncation mutants; format: binding
Description: Murine AhR and ARNT cDNA (obtained from J. Whitlock and O. Hankinson, respectively) were inserted into pcDNA3 (Invitrogen, Carlsbad, Calif.). Chicken hsp90 constructs (FIG. 5), c90711hsp (wild-type), c90G94D (wild-type point mutant gly94→Asp (Grenert et al., J. Biol. Chem. 272:23843-23850 (1997), which is hereby incorporated by reference in its entirety), c90D92A (wild-type point mutant Asp92→Ala (Sullivan et al., J. Biol. Chem. 268:20373-20379 (1993), which is hereby incorporated by reference in its entirety), c90N221 (wild-type truncation mutant encoding a.a. 221-728 (Sullivan et al., J. Biol. Chem. 268:20373-20379 (1993), which is hereby incorporated by reference in its entirety)), c90N303 (a.a. 303-728) and c90N538 (a.a. 538-728) were kind gifts from Dr. D. Toft (Rochester, Minn.). The C-terminal truncation mutant c900507 (a.a. 1-221) was obtained from Dr. L. Neckers (Rockville, Md.) (Grenert et al., J. Biol. Chem. 272:23843-23850 (1997); Marcu et al., J. Biol. Chem. 275:37181-37186 (2000), which are hereby incorporated by reference in their entirety). Human p23 cDNA was excised from pQE80-p23 (obtained from W. Chan Stockton, Calif.) by sequential digests using the restriction enzymes Sad (3′-end) and BamHI (5′-end) and inserted into the similarly digested pET28a (Novagen, Madison, Wis.). The mouse histidine-tagged XAP2 construct, pET-AIP (Bell et al., J. Biol. Chem. 275:36407-36414 (2000), which is hereby incorporated by reference in its entirety), was a kind gift from Dr. D. Bell (Nottingham, UK). All constructs are in the T7 orientation with the exception of c900507, which is driven by an SP6 promoter.
AhR, ARNT, hsp90 (wild-type, point mutants, and truncation mutants), p23, and XAP2 were generated (separately) by coupled transcription/translation in rabbit reticulocyte lysate (RRL) using the TNT® system according to the manufacturer's protocol (Promega, Madison Wis.). In this system, ^35S-methionine was included in the transcription/translation mix to generate ^35S-labeled protein.
EGCG was conjugated to cyanogen bromide (CNBr)-activated Sepharose (Sigma). […]

In the case of `O=C(O[C@@H]1Cc2c(O)cc(O)cc2O[C@@H]1c1cc(O)c(O)c(O)c1)c1cc(O)c(O)c(O)c1` [EGCG, epigallocatechin gallate], the IC50 ([1]; 500 pM TCDD, 4 h, read-out: IC50, inhibition of TCDD induced luciferase activity) is reported as roughly 100 µM, the “induction of luciferase activity, treatment alone” value ([1]; EGCG alone) is reported as “did not induce luciferase activity significantly over background” and the “binding of C-terminal hsp90 fragments” value (chicken hsp90; all C-terminal fragments (N221, N303, N538)) is reported as “bound EGCG”. For the same molecule, the “binding of N-terminal point mutants D92A, G94D to EGCG-Sepharose” value (chicken hsp90; compared with wild type hsp90) was “bound to EGCG-Sepharose as well as or better than the wild type hsp90” and the “binding of amino-terminal hsp90 fragment C507 to immobilized EGCG” value (chicken hsp90; fragment containing the GA binding site) was “failed to bind to immobilized EGCG”.
